From US7531195B2, “Schisandrin B preparation” (priority 2005, dated 2009)

How the values were obtained:
[1] = system: mitochondria of brain, heart, liver and skeletal muscle; assay: Mitochondrial antioxidant components in tissues of young adult and middle-aged rats; assay type: in vivo, rat; settings: 10 mg/kg/day x 15, range among tissues
Method: Young adult (8-10 week-old) and middle-aged (12-14 month-old retired breeder) female Sprague-Dawley rats were maintained under a 12-h dark/light cycle at about 22° C. and allowed food and water ad libitum. Experimental protocols were approved by the Research Practice Committee at the Hong Kong University of Science & Technology, Hong Kong. Animals were randomly divided into groups, with 5 animals in each. In the treatment groups, rats were intragastrically administered with Sch B (dissolved/suspended in olive oil) at a daily dose of 10 mg/kg for 15 days. The daily dose is approximated to 1.14 mg/kg for humans after adjusting the inter-species difference in drug distribution in the body. Untreated control animals received olive oil only. Twenty-four hours after the last dosing, animals were sacrificed by decapitation and the whole brain, heart ventricular, liver and skeletal muscle (hind limb) tissues were excised and subjected to biochemical analysis. To investigate the effect of (−) Sch B on myocardial ischemia-reperfusion […] injury, rats were intragastrically administered with (−) Sch B at a daily dose of 10 mg/kg for 35 days. Untreated control animals received olive oil only. Twenty-four hours after the last dosing, hearts were isolated from pentobarbital-anesthetized animals and subjected to I-R experiment.
Mitochondrial pellets were prepared from tissue homogenates by centrifugation at 800×g at 4° C. for 30 min, with purity being determined by measuring the relative specific activities of succinate dehydrogenase and lactate dehydrogenase (LDH) in the supernatant and mitochondrial pellet. Mitochondrial pellets were then resuspended in 1 ml of the respective homogenizing buffer used for various tissues and constituted the mitochondrial fractions. The protein concentration of mitochondrial fractions was determined using a Bio-Rad protein assay kit.
Aliquots (200 μl) of mitochondrial fractions were used for measuring mitochondrial glutathione (GSH) and α-tocopherol (α-TOC) levels by an enzymatic method and HPLC method, respectively, using GSH and α-TOC as standards. Se-glutathione peroxidase (GPX) activity was measured. Mn-superoxide dismutase (SOD) activity was measured by monitoring the […] of cytochrome c caused by superoxide radicals generated from the xanthine oxidase-xanthine reaction.

Hsp70 = Hsp70 expression in H9c2 cells (Western blot); assay type: cell-based, rat; settings: 6.25 μM
Method: (§1) H9c2 cells, a permanent cell line derived from cardiac myoblasts of rat embryo, have early been characterized as a suitable model of myocardial cells [Hescheler et al. 1991]. H9c2 cells were cultured as monolayers in Dulbecco's modified Eagle's medium (GIBCO BRL) supplemented with 10% (v/v) fetal bovine serum. The medium contained glucose (4.5 g/L) and glutamine (4.5 mM), supplemented with NaHCO3 (17 mM), penicillin (100 IU/ml), and streptomycin (100 μg/ml). Cells were grown under an atmosphere of 5% CO2 in air at 37° C. The medium was replaced by fresh medium every 2 or 3 days. A stock of cells was grown in a 75 cm culture flask and split before confluence at a subcultivation ratio of 1:10. Cells used for experiments were seeded at a density of 3.75×10^4 cells/well on a 12-well culture plate, and the cells were grown for 24 h to about 80% confluence prior to drug treatment.
(§2) Cultured H9c2 cells were treated with (−) Schisandrin B, (+) Schisandrin B or (±) Schisandrin B (dissolved in DMSO) at 6.25 μM (0.2% DMSO final concentration) for increasing periods of time. Control cells were given the vehicle (i.e. DMSO) only.
(§3) Immediately following the drug treatment, the cells were washed twice with 0.5 ml cold PBS and treated with 100 μl lysis buffer containing 20 mM Tris HCl, 3 mM EGTA, 1% Triton X-100, 10% glycerol and 2 mM dithiothreitol, pH 7.5, with freshly added protease inhibitors (1 mM phenylmethylsulfonyl fluoride, 0.1 mM benzamide, 5 μg/ml leupeptin, 5 μg aproptinin and 5 μg/ml pepstain A). The mixture was incubated at 4° C. for 15 min with constant shaking. Then the cells were scraped off from the plate, and the extract was transferred to a microcentrifuge tube for centrifugation at 2,400 g for 3 min at 4° C. The resultant supernatant was used for Hsp analysis. Hsp25 and Hsp70 levels was estimated by Western blot analysis using specific antibodies (anti-Hsp25, catalog #SPA-801; anti-Hsp70, catalog #SPA-812) from StressGen (Vancouver, BC, Canada) following SDS-PAGE analysis cell lysates, using a separating gel of 10% acrylamide as described in Ip et. al. [2001]. Hsp25/27 and Hsp70 (human recombinant proteins from StressGen) and actin (bovine muscle from Sigma) were used as markers for reference. […] All immuno-blots were analyzed by densitometry, and the amounts (arbitrary units) of Hsp were normalized with reference to actin levels (arbitrary units) in the sample.

Hsp25 [2] = assay: Tissue Hsp25 level in young female rats (Western blot); assay type: in vivo, rat; settings: 10 mg/kg daily, 15 days
Method: Female Sprague-Dawley rats (8 weeks old) were maintained under a 12-h dark/light cycle at about 22° C. and allowed food and water ad libitum. Drug treated animals received a daily bolus dose of (−) Schisandrin B, α-lipoic acid (α-LA) or α-tocopherol (α-Toc) at 10, 5 and 70 mg/kg, respectively, for 15 days. The dosages were determined with reference to the equivalent amount of crude herb prescribed for human or the daily recommended intake in health supplements. The control animals received olive oil only. Twenty-four hours after the last dose, the pentobarbital-anesthetized animals were sacrificed by cardiac excision, and brain. heart, liver and skeletal muscle tissues were obtained.
Hsp25 and Hsp70 levels was estimated by Western blot analysis using specific antibodies (anti-Hsp25, catalog #SPA-801; anti-Hsp70, catalog #SPA-812) from StressGen (Vancouver, BC, Canada) following SDS-PAGE analysis of the nuclear-free tissue homogenates, using a separating gel of 10% acrylamide as described in Ip et. al. (2001). Hsp25/27 and Hsp70 (human recombinant proteins from StressGen) and actin (bovine muscle from Sigma) were used as markers for reference. […] All immuno-blots were analyzed by densitometry, and the amounts (arbitrary units) of Hsp were normalized with reference to actin levels (arbitrary units) in the sample.

Hsp25 [3] = assay: Hsp25 expression in H9c2 cells (Western blot); assay type: cell-based, rat; settings: 6.25 μM
Method: as §1, §2, §3

[4] = 0 h post-dosing (unpretreated control)

## COc1cc2c(c(OC)c1OC)-c1c(cc3c(c1OC)OCO3)CC(C)C(C)C2 (single isomer, unassigned; (-)) [(−) Sch B, (−) Schisandrin B]
[1]
  extent of stimulation of mitochondrial GPX activity: 21-41%
  extent of stimulation of mitochondrial GSH level: 21-29%
  extent of stimulation of mitochondrial SOD activity: 19-34%
  extent of stimulation of mitochondrial α-TOC level: 19-34%
Hsp70; [4]
  Hsp 70 Level: 465 ± 14.3 AU
Hsp70; 8 h post-dosing
  Hsp 70 Level: 486 ± 16.7 AU
Hsp70; 16 h post-dosing
  Hsp 70 Level: 548 ± 6.67 AU
Hsp70; 24 h post-dosing
  Hsp 70 Level: 1058 ± 61 AU
  Hsp 70 Level, percent increase vs unpretreated control (0 h): (128%)
Hsp70; 48 h post-dosing
  Hsp 70 Level: 556 ± 32.1 AU
Hsp70; post-dosing
  time of maximum stimulation of Hsp70 level: 24 h
Hsp25 [2]
  changes in Hsp25 level in all tissues: No detectable changes
Hsp25 [2]; BRAIN
  Heat Shock Protein Level, Hsp25: 0.16 ± 0.01 AU
Hsp25 [2]; HEART
  Heat Shock Protein Level, Hsp25: 0.77 ± 0.05 AU
Hsp25 [2]; LIVER
  Heat Shock Protein Level, Hsp25: 0.41 ± 0.02 AU
Hsp25 [2]; SKELETAL MUSCLE
  Heat Shock Protein Level, Hsp25: 0.59 ± 0.03 AU
Hsp25 [3]; [4]
  Hsp 25 Level: 1722 ± 99 AU
Hsp25 [3]; 8 h post-dosing
  Hsp 25 Level: 1386 ± 50 AU
Hsp25 [3]; 16 h post-dosing
  Hsp 25 Level: 1432 ± 83 AU
Hsp25 [3]; 24 h post-dosing
  Hsp 25 Level: 1956 ± 113 AU
  Hsp 25 Level, percent increase vs unpretreated control (0 h): (14%)
Hsp25 [3]; 48 h post-dosing
  Hsp 25 Level: 1878 ± 108 AU
Hsp25 [3]; post-dosing
  time of maximum stimulation of Hsp25 level: 24 h
